{
  "source": "patent US20040167217A1",
  "about": "“Neuroprotective effects of polyphenolic compounds” (priority 2003, published 2004)",
  "key": {"HO-1 [1]": {"system": "HO-1", "assay": "HO-1 protein expression, Western blot, cortical neurons", "assay_type": "cell-based, rat", "method": "(§1) HO-1 and hsp70 protein levels were assessed by Western immunoblot technique using a polyclonal rabbit anti-HO-1 antibody (Stressgen; Victoria, Canada), and a polyclonal rabbit hsp70 antibody. Briefly, an equal amount of proteins (30 μg) for each sample was separated by SDS-polyacrylamide gel electrophoresis and transferred to nitrocellulose membranes, and the non-specific antibodies were blocked with 3% non-fat dried milk in PBS. Membranes were then probed with a polyclonal rabbit anti HO-1 antibody (Stressgen) (1:1000 dilution in Tris-buffered saline, pH 7,4) or with a monoclonal rabbit anti-Hsp72 antibody (Amersham Pharmacia Biotechnology) (1:1000 dilution in Tris-buffered saline, pH 7,4), that recognizes only the Hsp 70 inducible isoform. Blots were then visualized using an amplified alkaline phosphate kit from Sigma."}, "Male Wistar rats": {"system": "Male Wistar rats", "assay": "Brain lipid peroxides (FOX2) after T-BuOOH", "assay_type": "in vivo, rat", "method": "Male Wistar rats, weighing 140-180 g, were used for all experiments. Ten animals per experimental group were pre-administrated with curcumin, suitably suspended in distilled water, at the dose of 50 mg/kg per day, through oral intubation, for 7 days, before an intracerebroventricular injection of T-butylhydroperoxide (T-BuOOH) 2 μl of a 70% solution of phosphate buffered saline (PBS)^16. Lethality was assessed after administration of T-BuOOH at time points: 0, 2, 6, 12, and 24 h, and was expressed as the percentage of survival relative to the lethality observed in T-BuOOH plus Tween/saline vehicle (control) treated animals (FIG. 11A). […]\nBriefly, brain areas were dissected and homogenized in ice cold 0.1 M, pH 7.5 phosphate buffer (final vol 1.1 ml). […] Hydroperoxides were quantitated by the FOX2 method^17. […] After centrifugation at 12,000×g for 5 min to remove any flocculated material, absorbance of the supernatant was then read at 560 nm.\nMale Wistar rats, weighing 140-180 g, were used for all experiments. […] Lethality was assessed after administration of T-BuOOH at time points: 0, 2, 6, 12, and 24 h, and was expressed as the percentage of survival relative to the lethality observed in T-BuOOH plus Tween/saline vehicle (control) treated animals (FIG. 12A). […]"}, "cortical neurons": {"system": "cortical neurons", "assay": "Oligonucleosome formation in cortical neurons exposed to β-amyloid peptide (1-40)", "assay_type": "cell-based, rat", "conditions": "for apoptosis (oligonucleosome formation) induced by β-amyloid peptide (1-40): 20 μM β-amyloid peptide (1-40), parallel treatment", "method": "Primary cultures of cortical neurons and cerebellar granule cells were prepared. In brief, cortical neurons were prepared from fetal brain from 17-day pregnant rat and cerebellar granule cells from 8-day old rats. Brain tissues were dissociated through trypsinization in 0.025% trypsin solution and trituration. Dissociated cells were collected through centrifugation and resuspended in standard medium containing: basal Eagle's medium containing 10% fetal bovine serum (FCS), 2 mM glutamine, genatmycin 0.05 mg/ml, and 25 mM KCI. Cells were plated at a density of 1.8×10^6 onto 35-mm dishes coated with 10 micrograms/ml ply-L-lysine.\nAn inhibitor of HO-1 activity may be used to determine whether or not the effects of the polyphenolic compounds or analogs thereof are induced through the heme oxygenase signaling pathway. To understand the relevance of the induction of the stress protein HO-1 on the neuroprotective effects afforded by curcumin we treated cortical neuron exposed to β-amyloid with curcumin ([…]) alone or in the presence of tinprotoporphirine IX (SnPP) 40 μM, a specific inhibitor of HO-1 activity. The same treatment was performed in cortical neurons exposed to GOX-induced cellular damage."}, "HO-1 [2]": {"system": "HO-1", "assay": "HO-1 protein expression, Western blot, astrocytes", "assay_type": "cell-based", "method": "Type 1 astrocytes (DI TNC1) were purchased from the American Type Culture Collection (Manassas, VA) and cultured in Dulbecco's modified Eagle's medium containing 4.5 g/l glucose, 2 mM glutamine, 100 units/ ml penicillin, and 0.1 mg/ml streptomycin and supplemented with 10% fetal bovine serum. Cells were grown in 75-cm^2 flasks and maintained at 37° C. in a humidified atmosphere of air and 5% CO2. Confluent cells were exposed to various concentrations of curcumin, CAPE, or Curcumin-95. After each treatment (6 or 24 h), cells were harvested for the determination of heme oxygenase activity, HO-1 protein expression, and intracellular glutathione. Astrocytes growing in 24 wells were exposed to polyphenolic compounds, and cell viability was determined at 24 h. After treatment with curcumin, or CAPE, samples of astrocytes were also analyzed for HO-1 protein expression using a Western immunoblot technique described previously^18,19. Briefly, an equal amount of proteins (30 μg) for each sample was separated by SDS-polyacrylamide gel electrophoresis and transferred overnight to nitrocellulose membranes, and the non-specific binding of antibodies was blocked with 3% non-fat dried milk in PBS. Membranes were then probed with a polyclonal rabbit anti-HO-1 antibody (Stressgen) (1:1000 dilution in Tris-buffered saline, pH 7.4) for 2 h at room temperature. After three washes with PBS, blots were visualized using an amplified alkaline phosphatase kit from Sigma (Extra-3A), and the relative density of bands was analyzed by the use of an imaging densitometer (model GS-700; Bio-Rad, Herts, UK). Blots shown are representative of three independent experiments."}, "hsp70": {"system": "hsp70", "assay": "hsp70 protein expression, Western blot, cortical neurons", "assay_type": "cell-based, rat", "method": "as §1"}},
  "note": "Entries after “also recorded” stand apart in the source; their conditions may differ.",
  "data": [
    {"smiles": "O=C(/C=C/c1ccc(O)c(O)c1)OCCc1ccccc1", "note": "[CAPE, Caffeic acid phenethyl ester]", "values": [
      {"measurement": "HO-1 protein expression / HO-1 induction", "setting": "HO-1 [1]", "result": "strongly induce HO-1"},
      {"measurement": "lipid peroxides in brain areas (oxidative damage)", "setting": "Male Wistar rats; 20 mg/kg per day oral for 7 days before T-BuOOH", "result": "prevented oxidative damages to neuronal tissues"},
      {"measurement": "apoptosis (oligonucleosome formation) induced by β-amyloid peptide (1-40)", "setting": "cortical neurons", "result": "strong dose-dependent anti-apoptotic effect"},
      {"measurement": "concentration most effective in protecting from apoptosis", "setting": "cortical neurons; β-amyloid", "result": 25, "unit": "µM"},
      {"measurement": "concentration of maximal HO-1 protein expression", "setting": "HO-1 [2]", "result": 30, "unit": "µM"},
      {"measurement": "HO-1 protein levels", "setting": "HO-1 [2]; low concentrations 15-50 μM", "result": "substantial increase"}
    ]},
    {"smiles": "COc1cc(C=CC(=O)CC(=O)C=Cc2ccc(O)c(OC)c2)ccc1O", "note": "[curcumin, 1,7-bis[4-Hydroxy-3-methoxyphenyl]-1,6-heptadiene-3,5-dione]", "values": [
      {"measurement": "HO-1 protein expression / HO-1 induction", "setting": "HO-1 [1]", "result": "directly correlated with HO-1 protein levels"},
      {"measurement": "lipid peroxides in brain areas (oxidative damage)", "setting": "Male Wistar rats; 50 mg/kg per day oral for 7 days before T-BuOOH, cortex, striatum, hippocampus, cerebellum", "result": "prevented the oxidative damages to neuronal tissues"},
      {"measurement": "apoptosis (oligonucleosome formation) induced by β-amyloid peptide (1-40)", "setting": "cortical neurons", "result": "able to overcome much of the cellular damage caused by β-amyloid; also recorded: dramatically protect the cells against apoptosis"},
      {"measurement": "apoptosis induced by β-amyloid in the presence of HO-1 inhibitor SnPP", "setting": "cortical neurons; curcumin plus SnPP 40 μM", "result": "only able to partially reduce the apoptotic effects"},
      {"measurement": "hsp70 protein expression", "setting": "hsp70", "result": "induced hsp70 protein expression"},
      {"measurement": "HO-1 protein expression", "setting": "HO-1 [2]; 50-100 μM", "result": "failed to increase HO-1 expression"},
      {"measurement": "HO-1 protein expression", "setting": "HO-1 [2]; 6 h, 15 and 30 μM", "result": "marked up-regulation of HO-1 protein"},
      {"measurement": "HO-1 protein expression", "setting": "HO-1 [2]; 24 h after treatment", "result": "over-expression of HO-1 was also found"}
    ]}
  ]
}
